Reference: patent publication US11031562B2, “Metal complexes” (Merck Patent GmbH, priority 2015, dated 2021)

Tests used:
Assay type in all cases: physicochemical
[1] = Photoluminescence in solution (PL-max., PL quantum efficiency); settings: solvent toluene; room temperature, degassed solution
[2] = Oxidation and reduction potentials by CV (HOMO, LUMO); settings: in eV (unit assumed); for HOMO: Ox. in DCM; for LUMO: Red. in THF
[3] = Thermal stability: thermal storage at 360° C. for 7 days, checked by 1H NMR
[4] = Photostability in anhydrous C6D6 solution under irradiation with light of about 455 nm, checked by 1H NMR; settings: irradiation with light of wavelength about 455 nm

| PL-max. [1] | PLQE [1] | HOMO [2] | LUMO [2] | Therm. stab. [3] | Photo. stab. [4] | Compound |
| --- | --- | --- | --- | --- | --- | --- |
| 539 | 0.95 | −5.34 | −2.29 | no decomp. | no decomp. | CN1C(=O)c2ccc3[c](c2)[Ir-3]245([c]6cc(ccc6-c6cccc[n+]62)C(=O)N(C)c2cc1cc(c2)N(C)C(=O)c1ccc([c]4c1)-c1cccc[n+]15)[n+]1ccccc1-3 [Ir(L300)] |
| 516 | 0.97 | −5.05 | −1.71 | decomposition | decomposition | Cc1cc2[n+](cc1-c1ccccc1)[Ir-3]13([c]4ccccc4-c4cccc[n+]41)([c]1ccccc1-c1cccc[n+]13)[c]1ccccc1-2 [Ir2, reference compound] |
| 552 | 0.94 | −5.66 | −2.64 | no decomp. | no decomp. | O=C1Oc2cc3cc(c2)OC(=O)c2ccc4[c](c2)[Ir-3]25([c]6cc1ccc6-c1cccc[n+]12)([c]1cc(ccc1-c1cccc[n+]15)C(=O)O3)[n+]1ccccc1-4 [Ir(L200)] |

| Compound | PL-max. [1] | PLQE [1] | HOMO [2] | LUMO [2] | Therm. stab. [3] | Photo. stab. [4] |
| --- | --- | --- | --- | --- | --- | --- |
| c1ccc(-c2cc(-c3ccccc3)cc(-c3cccc(-c4cc[c]5c(c4)-c4cccc[n+]4[Ir-3]546([c]5ccc(-c7cccc(-c8cc(-c9ccccc9)cc(-c9ccccc9)c8)c7)cc5-c5cccc[n+]54)[c]4ccc(-c5cccc(-c7cc(-c8ccccc8)cc(-c8ccccc8)c7)c5)cc4-c4cccc[n+]46)c3)c2)cc1 [Ir1, reference compound] | 513 | 0.97 | −5.09 | −1.99 | – | – |
